Assay results as given in ChEMBL document CHEMBL1138991, “(+)-12alpha-Hydroxysophocarpine, a new quinolizidine alkaloid and related anti-HBV alkaloids from Sophora flavescens” (2006).
Calls of active or inactive are those of the source. No cut-off for these calls is given here.

Key:
Hepatitis B virus [1] = test: Inhibition of HBsAg release against HBV in HepG2 2.2.15 cell line at 0.4 umol/mL; format: functional; design: scale not given: the % may be the effect or the level left
Hepatitis B virus [2] = test: Inhibition of HBeAg release against HBV in HepG2 2.2.15 cell line at 0.2 umol/mL; format: functional; design: scale not given: the % may be the effect or the level left
Hepatitis B virus [3] = test: Inhibition of HBeAg release against HBV in HepG2 2.2.15 cell line at 0.4 umol/mL; format: functional; design: scale not given: the % may be the effect or the level left
Hepatitis B virus [4] = test: Inhibition of HBsAg release against HBV in HepG2 2.2.15 cell line at 0.8 umol/mL; format: functional; design: scale not given: the % may be the effect or the level left
Hepatitis B virus [5] = test: Inhibition of HBsAg release against HBV in HepG2 2.2.15 cell line at 0.2 umol/mL; format: functional; design: scale not given: the % may be the effect or the level left
HepG2 [6] = test: Cytotoxicity against HepG2 2.2.15 cell line at 1.6 umol/mL by MTT assay; format: functional, cell-based; conditions: Homo sapiens
Hepatitis B virus [7] = test: Inhibition of HBsAg release against HBV in HepG2 2.2.15 cell line at 0.1 umol/mL; format: functional; design: scale not given: the % may be the effect or the level left
Hepatitis B virus [8] = test: Inhibition of HBeAg release against HBV in HepG2 2.2.15 cell line at 0.8 umol/mL; format: functional; design: scale not given: the % may be the effect or the level left
Hepatitis B virus [9] = test: Inhibition of HBeAg release against HBV in HepG2 2.2.15 cell line at 0.1 umol/mL; format: functional; design: scale not given: the % may be the effect or the level left
HepG2 [10] = test: Cytotoxicity against HepG2 2.2.15 cell line at 0.4 umol/mL by MTT assay; format: functional, Homo sapiens
HepG2 [11] = test: Cytotoxicity against HepG2 2.2.15 cell line at 0.8 umol/mL by MTT assay; format: functional, cell-based; conditions: Homo sapiens

SMILES | Activity (Hepatitis B virus [1]) [%] | Activity (Hepatitis B virus [2]) [%] | Activity (Hepatitis B virus [3]) [%] | Activity (Hepatitis B virus [4]) [%] | Activity (Hepatitis B virus [5]) [%] | Activity (HepG2 [6]) | Activity (Hepatitis B virus [7]) [%] | Activity (Hepatitis B virus [8]) [%] | Activity (Hepatitis B virus [9]) [%] | Activity (HepG2 [10]) | Activity (HepG2 [11])
O=C1C=CC[C@@H]2[C@H]3CCCN4CCC[C@H](CN12)[C@@H]34 | 78.2 | 6.8 | 22.4 | 79.3 | 63.4 | Active | 17.9 | 27.6 | 0 |  | 
O=C1C=C[C@H](O)[C@@H]2[C@H]3CCCN4CCC[C@@H](CN12)[C@@H]34 |  | 4.6 |  |  | 40.8 |  | 28 |  | 0 | >=25% | 
O=C1CCC[C@@H]2[C@H]3CCC[N+]4([O-])CCC[C@@H](CN12)[C@@H]34 (some centres undefined) [OXYMATRINE] |  | 17.1 |  |  | 39.7 |  | 35.3 |  | 15.8 | >=25% | 
O=C1C=CC[C@@H]2[C@H]3CCC[N+]4([O-])CCC[C@@H](CN12)[C@@H]34 (some centres undefined) [OXYSOPHOCARPINE] |  | 24.6 |  |  | 48.3 |  | 39.9 |  | 22.4 | >=25% | 
O=C1CCC[C@@H]2[C@H]3CCCN4CCC[C@@H](CN12)[C@H]34 |  | 10.8 |  |  | 27.7 |  | 25.1 |  | 9.6 | >=25% | 
O=C1CCC[C@@H]2[C@H]3C[C@H](O)CN4CCC[C@@H](CN12)[C@@H]34 |  | 19.5 |  |  | 31.6 |  | 18.1 |  | 13.3 | >=25% | 
O=c1cccc2n1C[C@H]1C[C@H]2CN2CCCC[C@H]12 | 33.1 | 0 | 0 |  | 19.8 |  |  |  |  |  | Active
O=C1C=CC[C@@H]2[C@H]3C[C@H](O)CN4CCC[C@@H](CN12)[C@@H]34 |  | 5.7 |  |  | 24.5 |  | 0 |  | 0 | >=25% | 
O=C1C=CC[C@@H]2[C@H]3CCCN4CCC[C@@H](CN12)[C@@H]34 [SOPHOCARPINE] |  | 34.6 |  |  | 57.2 |  | 21.6 |  | 31.4 | >=25% | 
O=C1CC=C[C@@H]2[C@H]3CCCN4CCC[C@@H](CN12)[C@@H]34 |  | 25.4 |  |  | 52.6 |  | 25.1 |  | 22.6 | >=25% | 
O=C1CCC[C@@H]2[C@H]3CCCN4CCC[C@@H](CN12)[C@@H]34 [MATRINE] |  | 2.7 |  |  | 30.9 |  | 8.9 |  | 0 | >=25% | 
